# How the values were obtained:
# [1] = Non-competitive inhibition of human GAT1 expressed in COS cells assessed as reduction in [2H6]GABA uptake by measuring [2H6]GABA Kd(app) at 1 uM preincubated for 25 mins followed by [2H6]GABA addition and measured after 4 mins by liquid scintillation counting method (Rvb = 28.3 +/- 1.5 nM)
# [2] = Non-competitive inhibition of human GAT1 expressed in COS cells assessed as reduction in [2H6]GABA uptake by measuring [2H6]GABA Kd(app) at 10 uM preincubated for 25 mins followed by [2H6]GABA addition and measured after 4 mins by liquid scintillation counting method (Rvb = 28.3 +/- 1.5 nM)
# [3] = Inhibition of mouse GAT3 expressed in HEK293 cells assessed as reduction in [3H]GABA uptake preincubated for 25 mins followed by [3H]GABA addition and measured after 4 mins by liquid scintillation counting method
# [4] = Inhibition of mouse GAT2 expressed in HEK293 cells assessed as reduction in [3H]GABA uptake preincubated for 25 mins followed by [3H]GABA addition and measured after 10 mins by liquid scintillation counting method
Compound,Kd [1] [µM],Kd [2] [µM],IC50 [3] [µM],IC50 [4] [µM]
O=C(O)[C@H]1CNC[C@@H](CN/N=C/c2ccc(-c3cc(C(F)(F)F)cc(C(F)(F)F)c3)o2)C1,0.058,0.154,,
O=C(O)[C@H]1CNC[C@@H](CCN/N=C/c2ccc(-c3ccc(C(F)(F)F)cc3Cl)o2)C1,,,58.9,53.7
O=C(O)[C@H]1CNC[C@@H](CN/N=C/c2ccc(-c3cccc4ccccc34)o2)C1,0.056,0.112,33.1,
O=C(O)[C@H]1CNC[C@@H](CCN/N=C/c2ccc(-c3ccc(Cl)cc3Cl)o2)C1,,,25.7,53.7
